≈ marks a conversion by molar mass, not a printed value. Like-named read-outs stand apart in the source and are kept apart here.
Key:
[1] = system: 24 clinical isolate strains of C. difficile; test: Additional MIC determinations, antibacterial activity by OD600 (Example 3); assay type: cell-based, Clostridium difficile
[2] = system: C. difficile clinical isolates; test: MIC determination by microbroth dilution per CLSI guideline (Example 1); assay type: cell-based, Clostridium difficile; conditions: Clostridioides difficile
[3] = system: C. difficile; conditions: published data (footnote a); cited from earlier work

Row | Compound | MIC ([1]; strain 7-5085357 (ST028)) [µg/mL] | MIC ([1]; strain 7-6011209 (ST002)) [µg/mL] | MIC ([1]; strain 7-6778909 (ST016)) [µg/mL] | MIC ([1]; strain 7-6854508 (ST013)) [µg/mL] | MIC ([1]; strain 7-6870430 (ST001)) [µg/mL] | MIC ([1]; strain 7-7104022 (ST103)) [µg/mL] | MIC ([1]; strain 7-7116411 (ST005)) [µg/mL] | MIC ([1]; strain 7-7124449 (ST009)) [µg/mL] | MIC ([1]; strain 7-7149204 (ST006)) [µg/mL] | MIC ([1]; strain 7-7150288 (ST003)) [µg/mL] | MIC ([1]; strain 7-7150318 (ST059)) [µg/mL] | MIC ([1]; strain 7-7150628 (ST034)) [µg/mL] | MIC ([1]; strain 7-7150997 (ST049)) [µg/mL] | MIC ([1]; strain 7-7154992 (ST139)) [µg/mL] | MIC ([1]; strain 7-7200552 (ST017)) [µg/mL] | MIC ([1]; strain 12055) [µg/mL] | MIC ([1]; strain 12060) [µg/mL] | MIC ([1]; strain 12061) [µg/mL] | MIC ([1]; strain 12063) [µg/mL] | MIC ([1]; strain 12064) [µg/mL] | other results
1 | CC(=O)Oc1c(I)cc(I)cc1C(=O)Nc1ccc(Cl)cc1 [Clioxanide] | < 0.008 | < 0.008 | < 0.008 | < 0.008 | < 0.008 | < 0.008 | 0.125 (≈ 0.231 µM) | < 0.008 | < 0.008 | < 0.008 | < 0.008 | < 0.008 | < 0.008 | < 0.008 | < 0.008 | < 0.008 | < 0.008 | < 0.008 | < 0.008 | < 0.008 | MIC ([1]; strain 7-7363761 (ST008)): < 0.008 µg/mL; MIC ([1]; strain 12062): < 0.008 µg/mL; MIC ([1]; strain 12065): < 0.008 µg/mL; MIC ([1]; strain 12066): 0.063 µg/mL (≈ 0.116 µM); MIC ([2]; Table 3, strain 7-6011209, read-out: C. difficile Strain 7-6011209 MIC): 0.031 µg/mL (≈ 0.0572 µM); MIC ([2]; Table 3, strain 12055, read-out: C. difficile Strain 12055 MIC): < 0.08 µg/mL
2 | Cc1ncc([N+](=O)[O-])n1CCO [Metronidazole] | 1 (≈ 5.84 µM) | 0.031 (≈ 0.181 µM) | 0.25 (≈ 1.46 µM) | 1 (≈ 5.84 µM) | 1 (≈ 5.84 µM) | > 8 | > 16 | 2 (≈ 11.7 µM) | 0.5 (≈ 2.92 µM) | 0.063 (≈ 0.368 µM) | 1 (≈ 5.84 µM) | 0.5 (≈ 2.92 µM) | 0.031 (≈ 0.181 µM) | 1 (≈ 5.84 µM) | 2 (≈ 11.7 µM) | 1 (≈ 5.84 µM) | 1 (≈ 5.84 µM) | 1 (≈ 5.84 µM) | 0.25 (≈ 1.46 µM) | 0.031 (≈ 0.181 µM) | MIC ([1]; strain 12065): 1 µg/mL (≈ 5.84 µM); MIC ([1]; strain 12066): 1 µg/mL (≈ 5.84 µM); Highest MIC observed [3]: >32^a μg/mL; MIC90 [3]: 1^a μg/mL
3 | O=C(Nc1ccc(Br)cc1)c1cc(Br)cc(Br)c1O [Tribromsalan, 3,4′,5-tribromosalicylanilide] | 0.016 (≈ 0.0356 µM) | < 0.008 | < 0.008 | 0.031 (≈ 0.0689 µM) | 0.016 (≈ 0.0356 µM) | 1 (≈ 2.22 µM) | < 0.008 | 0.063 (≈ 0.14 µM) | < 0.008 | < 0.008 | < 0.008 | 0.031 (≈ 0.0689 µM) | 0.16 (≈ 0.356 µM) | 0.063 (≈ 0.14 µM) | 0.25 (≈ 0.556 µM) | 0.016 (≈ 0.0356 µM) | 0.063 (≈ 0.14 µM) | 0.016 (≈ 0.0356 µM) | 0.016 (≈ 0.0356 µM) | < 0.008 | MIC ([1]; strain 12062): < 0.008 µg/mL; MIC ([1]; strain 12065): 0.016 µg/mL (≈ 0.0356 µM); MIC ([1]; strain 12066): 0.031 µg/mL (≈ 0.0689 µM); MIC ([2]; read-out: C. difficile Strain 7-6011209 MIC): 0.125 µg/mL (≈ 0.278 µM); MIC ([2]; read-out: C. difficile Strain 12055 MIC): 0.25 µg/mL (≈ 0.556 µM)
